From patent publication US12691127B2, “Use of glucocorticoid receptor antagonists in combination with glucocorticoids to treat adrenal insufficiency” (Corcept Therapeutics, Inc., priority 2015, dated 2026)

What was measured:
HPA axis = test: Case report: recovery of the HPA axis (ACTH, cortisol, DHEA levels) in a patient with secondary adrenal insufficiency; assay type: in vivo, human
Description: The patient is a person who developed depression for which they were placed on various psychotropic medications. They developed progressive malaise, 25 pound weight gain, muscle weakness, easing bruising, hypertension and foot stress fracture. They underwent screening DEXA bone density scan because of their personal history of fracture and a family history of advanced osteoporosis and genetically confirmed hypophosphatasia in their parent. The DEXA bone density scan disclosed a T-score of −3.4 at the lumbar spine and −3.1 at the hip. […] Further testing for secondary causes of osteoporosis included 24-hour urinary free cortisol which was markedly elevated at 499 mcg/day (range 10-80 mcg/day). Plasma ACTH level was undetectable. […], they underwent uncomplicated right laparoscopic adrenalactomy and histopathology confirmed a 3.7 cm adrenal cortical adenoma. The patient underwent a unilateral procedure, leaving one adrenal gland intact. Post-operatively the patient was placed on hydrocortisone replacement, initially at a dose of 40 mg/day given in divided doses and gradually tapered to 30 mg/day over the following several months. One year after their adrenalectomy, their hydrocortisone had been further tapered to 15 mg/day, which remained their maintenance dose. During the ensuing 6 years after their adrenalectomy, the patient generally felt unwell with symptoms of episodic nausea, headaches, lightheadedness, mood swings and generalized weakness. Quarterly measurement of serum cortisol and plasma ACTH levels (performed after holding hydrocortisone for 18 hours) consistently yielded undetectable values for both parameters. During this 6 year period, they had one pregnancy, occurring 3 years after adrenalectomy and progressing to full-term delivery of a healthy child. They had two other hospitalizations (separated by 4 years) for near-syncope, malaise, nausea and vomiting (but without hypoglycemia or hypotension). Both episodes were treated with 48-hours of intravenous stress-doses of glucocorticoids and saline, followed by improvement of their symptoms and subsequent tapering of glucocorticoids to a replacement dose of hydrocortisone 15 mg/day. The failure of the HPA axis to recover six years after adrenalectomy (despite physiological steroid dosing) prompted magnetic resonance imaging of the sella to rule out structural abnormalities of the hypothalamus, infundibulum and pituitary. This MRI was unremarkable. At that time, after a balanced discussion of risk and benefit, mifepristone 150 mg every other day was initiated and the dose of hydrocortisone 15 mg/day was continued. Over the ensuing five months, the dose of mifepristone was gradually escalated to 300 mg every other day, then 300 mg daily and finally maintained at 600 mg daily. […] The dose of hydrocortisone was lowered and ultimately stopped 8 months after initiation of mifepristone. […] The pruritis was tolerable and managed with over the counter anti-histamines. At no point during treatment with mifepristone did the patient develop signs or symptoms of adrenal insufficiency. Their menses returned 3 weeks after discontinuation of mifepristone. [table] […] Recovery of the patient's HPA axis was achieved. The patient's ACTH and cortisol levels increased in response to the drug treatment.

[1] = Case report: tolerability and side effects of mifepristone in the patient; assay type: in vivo, human
Procedure: The failure of the HPA axis to recover six years after adrenalectomy (despite physiological steroid dosing) prompted magnetic resonance imaging of the sella to rule out structural abnormalities of the hypothalamus, infundibulum and pituitary. This MRI was unremarkable. At that time, after a balanced discussion of risk and benefit, mifepristone 150 mg every other day was initiated and the dose of hydrocortisone 15 mg/day was continued. Over the ensuing five months, the dose of mifepristone was gradually escalated to 300 mg every other day, then 300 mg daily and finally maintained at 600 mg daily. […] The dose of hydrocortisone was lowered and ultimately stopped 8 months after initiation of mifepristone. […] The pruritis was tolerable and managed with over the counter anti-histamines. At no point during treatment with mifepristone did the patient develop signs or symptoms of adrenal insufficiency. Their menses returned 3 weeks after discontinuation of mifepristone.

[2] = 6 years after adrenalectomy on hydrocortisone replacement alone (15 mg/day), after holding hydrocortisone for 18 hours
[3] = Month 0, Mife dose 0, HC dose 15 mg (before mifepristone)
[4] = Month 1, Mife 150 mg TIW, HC 15 mg
[5] = Month 3, Mife 300 mg TIW, HC 15 mg
[6] = Month 4, Mife 300 mg daily, HC 15 mg
[7] = Month 5, Mife 600 mg daily, HC 15 mg
[8] = Month 6, Mife 600 mg daily, HC 10 mg
[9] = Month 10, Mife 0, HC 0 (after completion of treatment)
[10] = Month 11, Mife 0, HC 0 (after completion of treatment)
[11] = patient, mifepristone up to 600 mg daily

For `C[C@]12CCC(=O)C=C1CC[C@@H]1[C@@H]2[C@@H](O)C[C@@]2(C)[C@H]1CC[C@]2(O)C(=O)CO` [hydrocortisone], the “plasma ACTH level, quarterly measurement” value (HPA axis; [2]) was “undetectable”, the “serum cortisol level, quarterly measurement” value (HPA axis; [2]) was “undetectable” and the ACTH (HPA axis; [3]) was 5 pg/mL. For the same compound, the Cortisol (HPA axis; [3]) was under 1 µg/dL and the DHEA (HPA axis; [3]) was under 0.05 ng/mL.
`CC#C[C@]1(O)CC[C@H]2[C@@H]3CCC4=CC(=O)CCC4=C3[C@@H](c3ccc(N(C)C)cc3)C[C@@]21C` [mifepristone, 17-β-hydrox-11-β-(4-dimethyl-aminophenyl)17-α-(1-propynyl)estra-4,9-dien-3-one] showed an ACTH (HPA axis; [4]) of 15 pg/mL, a Cortisol (HPA axis; [4]) of under 1 µg/dL and a DHEA (HPA axis; [4]) of under 0.05 ng/mL. It also gave an ACTH (HPA axis; [5]) of 18 pg/mL, a Cortisol (HPA axis; [5]) of under 1 µg/dL and a DHEA (HPA axis; [5]) of under 0.05 ng/mL. For the same compound, the ACTH (HPA axis; [6]) was 60 pg/mL, the Cortisol (HPA axis; [6]) was 3.6 µg/dL and the DHEA (HPA axis; [6]) was under 0.05 ng/mL. It also gave an ACTH (HPA axis; [7]) of 78 pg/mL, a Cortisol (HPA axis; [7]) of 4.6 µg/dL and a DHEA (HPA axis; [7]) of under 0.05 ng/mL. For the same compound, the ACTH (HPA axis; [8]) was 173 pg/mL, the Cortisol (HPA axis; [8]) was 10.5 µg/dL and the DHEA (HPA axis; [8]) was under 0.05 ng/mL. For the same compound, the ACTH (HPA axis; Month 8, Mife 300 mg TIW, HC 0) was 126 pg/mL, the Cortisol (HPA axis; Month 8, Mife 300 mg TIW, HC 0) was 13.6 µg/dL and the DHEA (HPA axis; Month 8, Mife 300 mg TIW, HC 0) was under 0.05 ng/mL. It also gave an ACTH (HPA axis; [9]) of 26 pg/mL, a Cortisol (HPA axis; [9]) of 13.5 µg/dL and a DHEA (HPA axis; [9]) of under 0.05 ng/mL. For the same compound, the ACTH (HPA axis; [10]) was 45 pg/mL, the Cortisol (HPA axis; [10]) was 15.3 µg/dL and the DHEA (HPA axis; [10]) was 0.053 ng/mL. The “levels of ACTH and cortisol after completion of the treatment” value (HPA axis; after completion of hydrocortisone and mifepristone treatment) was “Normal levels of ACTH and cortisol were maintained”, the “treatment outcome of secondary adrenal insufficiency” value (HPA axis; co-administration of hydrocortisone and mifepristone) was “successfully treated” and the “recovery of the HPA axis” value (HPA axis; mifepristone escalated 150 mg every other day to 600 mg daily, with hydrocortisone 15 mg/day) was “rapid recovery of the HPA axis was noted”. For the same compound, the “time to rise in ACTH into the supra-normal range after starting mifepristone” value (HPA axis; with hydrocortisone 15 mg/day) was 4 months, the “signs or symptoms of adrenal insufficiency during treatment” value ([1]; during treatment with mifepristone) was “At no point” and the “time to return of menses after discontinuation of mifepristone” value ([1]; human, in vivo) was 3 weeks. The side effects [1, 11] was “amenorrhea and pruritis” and the tolerability [1, 11] was “tolerated mifepristone remarkably well”.
